The nature of this series: Chemical stability in 90% deionized water after 24 hrs by NMR spectroscopy. The format is physicochemical. Particulars: read-out: Stability.
`O=C1C2=NCC3(CCCC3)CN2c2ccc(S(=O)(=O)N3CCC[C@H]3COc3ccccc3)cc21`: the remaining at 24 h amounted to 89%.
As to `O=C1C2=NCC3(CCC3)CN2c2ccc(S(=O)(=O)N3CCC[C@H]3COc3ccccc3)cc21`, the remaining at 24 h was determined as 69%.
The same measure for `COC[C@@H]1CCCN1S(=O)(=O)c1ccc2c(c1)C(=O)C1=NCC3(CCCCC3)CN12`: 71%.
Under `COC[C@@H]1CCCN1S(=O)(=O)c1ccc2c(c1)C(=O)C1=NCC3(CCC3)CN12` stands 74%; under `O=C1C2=NCC3(CCCCC3)CN2c2ccc(S(=O)(=O)N3CCC[C@H]3COc3ccccc3)cc21`, 72%.
Under `COC[C@@H]1CCCN1S(=O)(=O)c1ccc2c(c1)C(=O)C1=NCC3(CCCC3)CN12` stands 87%.
